# According to article PMC12693701, “Glucosinolate-Derived Metabolites from Barbarea vulgaris (Brassicaceae): Evaluation of Antimicrobial, Antioxidant, and Anti-Inflammatory Potentials” (Molecules, 2025):
# Read-outs that look alike come from different tables or passages of the source.
# How the values were obtained:
# [1] = test system: B. pumilus NCTC 8241; experiment: Microdilution MIC/MMC with resazurin; format: cell-based, Bacillus pumilus; settings: for MIC: Bacillus pumilus, NCTC8241
# Experimental: (§1) The antimicrobial activity was evaluated against 15 microorganisms. This included 11 bacterial strains: four standard strains (Staphylococcus aureus ATCC 25923, Bacillus subtilis ATCC 6633, Bacillus pumilus NCTC 8241, and Escherichia coli ATCC 25922) and six clinical or environmental isolates (Staphylococcus aureus, Escherichia coli, Bacillus cereus, Proteus mirabilis, Salmonella enterica, and Klebsiella pneumoniae). One probiotic strain, Bifidobacterium animalis subsp. lactis was tested. In addition, four fungal strains, Candida albicans ATCC 10231, Trichoderma viride ATCC 13233, Aspergillus flavus ATCC 9170, and Fusarium solani ATCC 11712 were tested. The bacterial strains were kept in glycerol stock at −80 °C and the fungal strains in paraffin oil stock at 4 °C.
# (§2) Bacterial and yeast suspensions were prepared using the direct colony method, as previously described by Andrews. The turbidity of the initial suspensions was adjusted to match the 0.5 McFarland standard using a densitometer (Biosan, Riga, Latvia), corresponding to approximately 10^8 colony-forming units (CFU)/mL for bacterial cells and 10^6 CFU/mL for yeast cells. Subsequently, 1:100 dilutions of the initial suspensions were prepared in sterile 0.85% saline. Fungal spore suspensions were obtained by gently harvesting spores from agar slopes containing mature mycelial growth. The collected spore suspensions were then diluted 1:1000 in sterile 0.85% saline prior to use.
# (§3) Antimicrobial activity was evaluated by determining the minimum inhibitory concentration (MIC) and minimum microbicidal concentration (MMC) using the microdilution plate method with resazurin as an indicator [28]. In the 96-well plates, 100 μL of Mueller–Hinton broth (Torlak, Belgrade, Serbia) for bacterial testing and Sabouraud broth (Torlak, Belgrade, Serbia) for fungal testing were dispensed into each well. The compounds under investigation were initially dissolved in a 10% dimethyl sulfoxide (DMSO) solution, followed by dilution in sterile distilled water, resulting in a working compound solution containing 1% DMSO. A 100 μL aliquot of the stock solution of the tested compound was added to the first row, and twofold serial dilutions were then carried out using a multichannel pipette. The resulting concentration range was from 5 to 0.039 mg/mL. The inoculated microtiter plates were incubated at 37 °C for 24 h for bacteria, at 28 °C for 48 h for yeasts, and at 28 °C for 72 h for molds.
# (§4) Each test also included growth control and sterility control. All tests were conducted in duplicate. MIC was defined as the lowest concentration of tested compounds that prevented resazurin color change from blue to pink. For molds, MIC values of the tested compound were determined as the lowest concentration that inhibited visible mycelia growth. MMC was determined by inoculation of the nutrient agar medium by plating […] of samples from wells, where no indicator color change was recorded. At the end of the incubation period, the lowest concentration with no growth (no colony) was defined as MMC.
# (§5) Doxycycline, ampicillin and amphotericin B (- Sigma-Aldrich, St. Louis, MO, USA) and ketoconazole (Hemofarm A.D., Vršac, Serbia) were dissolved in a nutrient liquid medium. Doxycycline is a broad-spectrum antibiotic effective against both aerobic and anaerobic Gram-positive and Gram-negative bacteria. Ampicillin, a beta-lactam antibiotic, primarily targets Gram-positive bacteria but also some Gram-negative strains. Amphotericin B is an antifungal drug often used for serious systemic fungal infections and is one of the effective treatments for fungal infections caused by Aspergillus sp. Ketoconazole is an antifungal agent used to inhibit the growth of Candida species.
# [2] = test system: S. enterica; experiment: Microdilution MIC/MMC with resazurin; format: cell-based, Salmonella enterica; settings: compounds 1–8; for MIC: Salmonella enterica
# Experimental: as §1, §2, §3, §4, §5
# [3] = test system: S. aureus ATCC 25923; experiment: Microdilution MIC/MMC with resazurin; format: cell-based, Staphylococcus aureus; settings: for MIC: Staphylococcus aureus, ATCC25923
# Experimental: as §1, §2, §3, §4, §5
# [4] = test system: S. aureus; experiment: Microdilution MIC/MMC with resazurin; format: cell-based, Staphylococcus aureus; settings: for MIC: Staphylococcus aureus
# Experimental: as §1, §2, §3, §4, §5
# [5] = test system: T. viride ATCC 13233; experiment: Microdilution MIC/MMC; format: cell-based, Trichoderma viride
# Experimental: as §1, §2, §3, §4, §5
# [6] = test system: P. mirabilis; experiment: Microdilution MIC/MMC with resazurin; format: cell-based, Proteus mirabilis; settings: for MIC: Proteus mirabilis
# Experimental: as §1, §2, §3, §4, §5
# [7] = test system: A. flavus ATCC 9170; experiment: Microdilution MIC/MMC; format: cell-based, Aspergillus flavus
# Experimental: as §1, §2, §3, §4, §5
# [8] = test system: B. subtilis ATCC 6633; experiment: Microdilution MIC/MMC with resazurin; format: cell-based, Bacillus subtilis; settings: for MIC: Bacillus subtilis, ATCC6633
# Experimental: as §1, §2, §3, §4, §5
# [9] = test system: B. cereus; experiment: Microdilution MIC/MMC with resazurin; format: cell-based, Bacillus cereus; settings: for MIC: Bacillus cereus
# Experimental: as §1, §2, §3, §4, §5
# [10] = DPPH radical scavenging assay; settings: mean ± SD
# Experimental: The DPPH assay was used to assess the ability of the tested compounds to scavenge reactive radical species. Stock solutions of the investigated compounds were prepared in DMSO and then diluted with methanol to a final volume of 1000 µL. An equal volume of a 50 µM DPPH solution in methanol was then added to the prepared mixture. The final concentrations of the test compounds were 25, 50, and 100 µM. After thorough mixing, the samples were incubated in the dark at room temperature for 20 to 60 min. Methanol was used as a blank, and absorbance was measured at 517 nm after incubation. All measurements were performed in triplicate.
# [11] = test system: E. coli; experiment: Microdilution MIC/MMC with resazurin; format: cell-based, Escherichia coli; settings: E. coli isolate, compounds 1–8
# Experimental: as §1, §2, §3, §4, §5
# [12] = test system: E. coli ATCC 25922; experiment: Microdilution MIC/MMC with resazurin; format: cell-based, Escherichia coli; settings: for MIC: Escherichia coli, ATCC25922
# Experimental: as §1, §2, §3, §4, §5
# [13] = B. pumilus NCTC 8241, compounds 1–8
# [14] = B. pumilus NCTC 8241, compounds 1–8, read-out: MIC
# [15] = S. aureus ATCC 25923, compounds 1–8
# [16] = S. aureus ATCC 25923, compounds 1–8, read-out: MIC
# [17] = S. aureus isolate, compounds 1–8
# [18] = S. aureus isolate, compounds 1–8, read-out: MIC
# [19] = T. viride ATCC 13233, compounds 1–8
# [20] = Trichoderma viride, ATCC13233, T. viride ATCC 13233, compounds 1–8, read-out: MIC
# [21] = P. mirabilis, compounds 1–8, read-out: MIC
# [22] = A. flavus ATCC 9170, compounds 1–8
# [23] = Aspergillus flavus, ATCC9170, A. flavus ATCC 9170, compounds 1–8, read-out: MIC
# [24] = B. subtilis ATCC 6633, compounds 1–8
# [25] = B. subtilis ATCC 6633, compounds 1–8, read-out: MIC
# [26] = B. cereus, compounds 1–8, read-out: MIC
# [27] = Escherichia coli, read-out: MIC
# [28] = E. coli ATCC 25922, compounds 1–8
# [29] = E. coli ATCC 25922, compounds 1–8, read-out: MIC
Structure (SMILES),"MMC [1, 13]","MIC [1, 14]",MIC [2],MMC [2],"MMC [3, 15]","MIC [3, 16]","MMC [4, 17]","MMC [5, 19]","MMC ([6]; P. mirabilis, compounds 1–8)","MMC [7, 22]","MMC [8, 24]","MMC ([9]; B. cereus, compounds 1–8)","DPPH Scavenging Ability ([10]; 25 µM, 20 min)","DPPH Scavenging Ability ([10]; 25 µM, 60 min)","DPPH Scavenging Ability ([10]; 50 µM, 20 min)","DPPH Scavenging Ability ([10]; 50 µM, 60 min)","DPPH Scavenging Ability ([10]; 100 µM, 20 min)","DPPH Scavenging Ability ([10]; 100 µM, 60 min)",MMC [11],"MMC [12, 28]",also measured
"O=C(O)C1CSC(=S)N1 (stereo not shown) [Compound 3, 2-Thioxothiazolidine-4-carboxylic Acid]",0.625 mg/mL,625 µg/mL,2500 µg/mL,2.5 mg/mL,0.625 mg/mL,625 µg/mL,0.312 mg/mL,5 mg/mL,2.5 mg/mL,5 mg/mL,5 mg/mL,2.5 mg/mL,1.0 ± 0.3%,1.1 ± 0.5%,1.9 ± 0.8%,2.1 ± 1.1%,7.8 ± 1.8%,7.9 ± 1.7%,5 mg/mL,1.25 mg/mL,"MIC [4, 18]: 156 µg/mL; MIC [5, 20]: 2500 µg/mL; MIC [6, 21]: 2500 µg/mL; MIC [7, 23]: 5000 µg/mL; MIC [8, 25]: 2500 µg/mL; MIC [9, 26]: 2500 µg/mL; MIC [11, 27]: 1250 µg/mL; MIC [12, 29]: 625 µg/mL"
"O=C1NCC(c2ccccc2)S1 (stereo not shown) [Compound 6, 5-phenyl-1,3-thiazolidin-2-one]",>5 mg/mL,> 5000 µg/mL,> 5000 µg/mL,>5 mg/mL,>5 mg/mL,> 5000 µg/mL,>5 mg/mL,>5 mg/mL,>5 mg/mL,>5 mg/mL,>5 mg/mL,>5 mg/mL,3.1 ± 0.6%,3.0 ± 0.7%,4.2 ± 0.8%,4.6 ± 0.6%,5.9 ± 0.9%,5.8 ± 1.4%,>5 mg/mL,>5 mg/mL,"MIC [4, 18]: > 5000 µg/mL; MIC [5, 20]: > 5000 µg/mL; MIC [6, 21]: > 5000 µg/mL; MIC [7, 23]: > 5000 µg/mL; MIC [8, 25]: > 5000 µg/mL; MIC [9, 26]: > 5000 µg/mL; MIC [11, 27]: > 5000 µg/mL; MIC [12, 29]: > 5000 µg/mL"
"Oc1ccc(CCN=C=S)cc1 [Compound 8, 2-(4-hydroxyphenyl)ethyl isothiocyanate]",0.156 mg/mL,–,312 µg/mL,1.25 mg/mL,0.625 mg/mL,–,0.312 mg/mL,<0.039 mg/mL,0.625 mg/mL,<0.039 mg/mL,>5 mg/mL,1.25 mg/mL,4.4 ± 1.0%,4.7 ± 1.2%,7.3 ± 1.3%,8.1 ± 1.3%,13.1 ± 0.7%,14.2 ± 0.9%,0.625 mg/mL,0.312 mg/mL,"MIC [1]: 156 µg/mL; MIC [3]: 156 µg/mL; MIC [4]: 78 µg/mL; MIC [5, 19]: <39 µg/mL; MIC ([5]; Trichoderma viride, ATCC13233): < 39 µg/mL; MIC [6]: 156 µg/mL; MIC [7, 22]: <39 µg/mL; MIC ([7]; Aspergillus flavus, ATCC9170): < 39 µg/mL; MIC [8]: 312 µg/mL; MIC [9]: 156 µg/mL; MIC [11]: <39 µg/mL; MIC ([11]; Escherichia coli): 39 µg/mL; MIC [12]: 78 µg/mL"
"CSC(=S)NCCc1ccc(O)cc1 [Compound 2, methyl-4-hydroxyphenylethyl dithiocarbamate]",0.156 mg/mL,156 µg/mL,625 µg/mL,–,0.156 mg/mL,156 µg/mL,0.312 mg/mL,0.312 mg/mL,0.312 mg/mL,0.625 mg/mL,1.25 mg/mL,0.625 mg/mL,11.9 ± 0.7%,12.0 ± 0.4%,15.6 ± 0.3%,15.7 ± 1.4%,24.9 ± 1.1%,25.2 ± 1.6%,0.312 mg/mL,0.312 mg/mL,"MIC [4, 18]: 312 µg/mL; MIC [5, 20]: 156 µg/mL; MIC [6, 21]: 156 µg/mL; MIC [7, 23]: 312 µg/mL; MIC [8, 25]: 78 µg/mL; MIC [9, 26]: 156 µg/mL; MIC [11, 27]: 312 µg/mL; MIC [12, 29]: 312 µg/mL"
"O=C1NCC(c2ccccc2)O1 (stereo not shown) [Compound 7, 5-Phenyl-1,3-oxazolidin-2-one]",5 mg/mL,5000 µg/mL,1250 µg/mL,2.5 mg/mL,5 mg/mL,5000 µg/mL,5 mg/mL,2.5 mg/mL,2.5 mg/mL,2.5 mg/mL,5 mg/mL,5 mg/mL,1.1 ± 0.4%,0.9 ± 0.7%,1.5 ± 0.9%,1.5 ± 0.8%,2.6 ± 1.0%,2.7 ± 1.5%,2.5 mg/mL,2.5 mg/mL,"MIC [4, 18]: 2500 µg/mL; MIC [5, 20]: 1250 µg/mL; MIC [6, 21]: 2500 µg/mL; MIC [7, 23]: 2500 µg/mL; MIC [8, 25]: 5000 µg/mL; MIC [9, 26]: 5000 µg/mL; MIC [11, 27]: 1250 µg/mL; MIC [12, 29]: 1250 µg/mL"
